Data published in ChEMBL document CHEMBL4765457, “Targeting dual tolerant regions of binding pocket: Discovery of novel morpholine-substituted diarylpyrimidines as potent HIV-1 NNRTIs with significantly improved water solubility” (Eur J Med Chem, 2020).

Legend:
[1] = system: Human immunodeficiency virus 1; assay: Antiviral activity against HIV1 harboring RT F227L/V106Amutant infected in human MT4 cells assessed as inhibition of virus-induced cytopathic effect incubated for 5 days by MTT assay; format: functional, organism-based; details: Human immunodeficiency virus 1, MT4, 120 h
[2] = Resistance index, ratio of EC50 for antiviral activity against HIV1 expressing RT L100I mutant infected in human MT4 cells to EC50 for antiviral activity against HIV1 3B infected in human MT4 cells; format: functional
[3] = Resistance index, ratio of EC50 for antiviral activity against HIV1 expressing RT K103N mutant infected in human MT4 cells to EC50 for antiviral activity against HIV1 3B infected in human MT4 cells; format: functional
[4] = Resistance index, ratio of EC50 for antiviral activity against HIV1 expressing RT Y181C mutant infected in human MT4 cells to EC50 for antiviral activity against HIV1 3B infected in human MT4 cells; format: functional
[5] = Resistance index, ratio of EC50 for antiviral activity against HIV1 expressing RT Y188L mutant infected in human MT4 cells to EC50 for antiviral activity against HIV1 3B infected in human MT4 cells; format: functional
[6] = Resistance index, ratio of EC50 for antiviral activity against HIV1 expressing RT E138K mutant infected in human MT4 cells to EC50 for antiviral activity against HIV1 3B infected in human MT4 cells; format: functional
[7] = Resistance index, ratio of EC50 for antiviral activity against HIV1 expressing RT F227L/V106A mutant infected in human MT4 cells to EC50 for antiviral activity against HIV1 3B infected in human MT4 cells; format: functional
[8] = system: Human immunodeficiency virus 1; assay: Antiviral activity against HIV1 3B infected in human MT4 cells assessed as virus-induced cytopathic effect incubated for 5 days by MTT assay; format: functional, organism-based; details: Human immunodeficiency virus 1, 3B, MT4, 120 h
[9] = system: Human immunodeficiency virus 1; assay: Antiviral activity against HIV1 RES056 infected in human MT4 cells assessed as inhibition of virus-induced cytopathic effect incubated for 5 days by MTT assay; format: functional, organism-based; details: Human immunodeficiency virus 1, RES056, MT4, 120 h
[10] = Cytotoxicity against human MT4 cells assessed as reduction in cell viability incubated for 5 days by MTT assay; format: cell-based; details: time 5 day
[11] = Selectivity index, ratio of CC50 for human MT4 cells to EC50 for antiviral activity against HIV1 3B infected in human MT4 cells; format: toxicity, cell-based; details: read-out: Ratio CC50/EC50
[12] = Selectivity index, ratio of CC50 for human MT4 cells to EC50 for antiviral activity against HIV1 RES056 infected in human MT4 cells; format: toxicity, cell-based; details: read-out: Ratio CC50/EC50
[13] = system: Human immunodeficiency virus 1; assay: Antiviral activity against HIV1 harboring RT L100I mutant infected in human MT4 cells assessed as inhibition of virus-induced cytopathic effect incubated for 5 days by MTT assay; format: functional, organism-based; details: Human immunodeficiency virus 1, MT4, 120 h
[14] = system: Human immunodeficiency virus 1; assay: Antiviral activity against HIV1 harboring RT K103N mutant infected in human MT4 cells assessed as inhibition of virus-induced cytopathic effect incubated for 5 days by MTT assay; format: functional, organism-based; details: Human immunodeficiency virus 1, MT4, 120 h
[15] = system: Human immunodeficiency virus 1; assay: Antiviral activity against HIV1 harboring RT Y181C mutant infected in human MT4 cells assessed as inhibition of virus-induced cytopathic effect incubated for 5 days by MTT assay; format: functional, organism-based; details: Human immunodeficiency virus 1, MT4, 120 h
[16] = system: Human immunodeficiency virus 1; assay: Antiviral activity against HIV1 harboring RT Y188L mutant infected in human MT4 cells assessed as inhibition of virus-induced cytopathic effect incubated for 5 days by MTT assay; format: functional, organism-based; details: Human immunodeficiency virus 1, MT4, 120 h
[17] = system: Human immunodeficiency virus 1; assay: Antiviral activity against HIV1 harboring RT E138K mutant infected in human MT4 cells assessed as inhibition of virus-induced cytopathic effect incubated for 5 days by MTT assay; format: functional, organism-based; details: Human immunodeficiency virus 1, MT4, 120 h

| SMILES | EC50 [1] [µM] | Ratio EC50 [2] | Ratio EC50 [3] | Ratio EC50 [4] | Ratio EC50 [5] | Ratio EC50 [6] | Ratio EC50 [7] | EC50 [8] [µM] | EC50 [9] [µM] | CC50 at 120 h [10] [µM] | selectivity ratio [11] | selectivity ratio [12] | EC50 [13] [µM] | EC50 [14] [µM] | EC50 [15] [µM] | EC50 [16] [µM] | EC50 [17] [µM] |
| --- | --- | --- | --- | --- | --- | --- | --- | --- | --- | --- | --- | --- | --- | --- | --- | --- | --- |
| Cc1cc(C#N)cc(C)c1Oc1nc(NC2CCN(Cc3ccc(S(N)(=O)=O)cc3)CC2)nc2ccsc12 | 0.0042 | 2.4 | 2 | 2.3 | 2.1 | 2 | 3 | – | – | – | – | – | – | – | – | – | – |
| Cc1cc(C#N)cc(C)c1Oc1nc(NC2CCN(CCN3CCOCC3)CC2)nc2ccoc12 | – | – | – | – | – | – | – | 1.1 | > 138 | 138 | 125 | < 1 | – | – | – | – | – |
| Cc1cc(C#N)cc(C)c1Oc1nc(NC2CCN(CCN3CCOCC3)CC2)nc2c1SCC2 | – | – | – | – | – | – | – | 0.114 | > 43 | 43 | 376 | < 1 | – | – | – | – | – |
| Cc1cc(C#N)cc(C)c1Oc1nc(NC2CCN(CC(=O)N3CCOCC3)CC2)nc2c1CSC2 | 41.2 | 158.7 | 24.2 | 86.9 | 48.4 | 4.1 | 267.3 | 0.154 | > 64.6 | 64.6 | 420 | < 1 | 24.4 | 3.73 | 13.4 | 7.45 | 0.627 |
| Cc1cc(C#N)cc(C)c1Oc1nc(NC2CCN(CCN3CCOCC3)CC2)nc2ccccc12 | – | – | – | – | – | – | – | 0.502 | > 26 | 26 | 52 | < 1 | – | – | – | – | – |
| Cc1cc(C#N)cc(C)c1Oc1ccnc(NC2CCN(CCN3CCOCC3)CC2)n1 | – | – | – | – | – | – | – | 1.12 | > 246 | 246 | 219 | < 1 | – | – | – | – | – |
| Cc1cc(C#N)cc(C)c1Oc1nc(NC2CCN(CC(=O)N3CCOCC3)CC2)nc2c1COC2 | – | – | – | – | – | – | – | 0.149 | > 184 | 184 | 1240 | < 1 | – | – | – | – | – |
| Cc1cc(C#N)cc(C)c1Oc1nc(NC2CCN(CC(=O)N3CCOCC3)CC2)nc2cc(F)ccc12 | – | – | – | – | – | – | – | 0.577 | > 16.4 | 41.1 | 71 | < 2.51 | – | – | – | – | – |
| Cc1cc(C#N)cc(C)c1Oc1nc(NC2CCN(CC(=O)N3CCOCC3)CC2)nc2scnc12 | 35.9 | 107.7 | 26.7 | 21.8 | 86 | 5 | 256.1 | 0.14 | > 129 | 129 | 919 | < 1 | 15.1 | 3.74 | 3.06 | 12.1 | 0.703 |
| Cc1cc(C#N)cc(C)c1Oc1nc(NC2CCN(CC(=O)N3CCOCC3)CC2)nc2ccccc12 | – | – | – | – | – | – | – | 0.597 | > 42.6 | 42.6 | 71 | < 1 | – | – | – | – | – |
| Cc1cc(C#N)cc(C)c1Oc1nc(NC2CCN(CCN3CCOCC3)CC2)nc2c1COC2 | – | – | – | – | – | – | – | 0.366 | > 140 | 140 | 383 | < 1 | – | – | – | – | – |
| COc1cc2nc(NC3CCN(CC(=O)N4CCOCC4)CC3)nc(Oc3c(C)cc(C#N)cc3C)c2cc1OC | 0.974 | >96.8 | 11.4 | >96.8 | >96.8 | >96.8 | 0.4 | 2.18 | > 211 | 211 | 97 | < 1 | > 211 | 24.8 | > 211 | > 211 | > 211 |
| Cc1cc(C#N)cc(C)c1Oc1nc(NC2CCN(CC(=O)N3CCOCC3)CC2)nc2ccoc12 | – | – | – | – | – | – | – | 0.327 | > 125 | 125 | 383 | < 1 | – | – | – | – | – |
| Cc1cc(C#N)cc(C)c1Oc1nc(NC2CCN(CC(=O)N3CCOCC3)CC2)nc2c1CCC2 | 27 | 150.4 | 24.1 | 100.8 | 61.4 | 10.6 | 256 | 0.106 | > 73.5 | 73.5 | 696 | < 1 | 15.9 | 2.54 | 10.6 | 6.48 | 1.12 |
| Cc1cc(C#N)cc(C)c1Oc1nc(NC2CCN(CCN3CCOCC3)CC2)nc2c1CSC2 | 11.8 | 95.6 | 11.3 | 76.2 | 79.7 | 6.8 | 68.4 | 0.173 | > 28.5 | 28.5 | 164 | < 1 | 16.6 | 1.96 | 13.2 | 13.8 | 1.18 |
| Cc1cc(C#N)cc(C)c1Oc1nc(NC2CCN(CC(=O)N3CCOCC3)CC2)nc2ccsc12 | ≥ 17.9 | 51.4 | 13.7 | 52.4 | 48.8 | 1.7 | >=178.1 | 0.101 | > 41.9 | 41.9 | 416 | < 1 | 5.17 | 1.38 | 5.27 | 4.92 | 0.171 |
| Cc1cc(C#N)cc(C)c1Oc1nc(NC2CCN(CCN3CCOCC3)CC2)nc2c1CCC2 | – | – | – | – | – | – | – | 0.188 | > 49.1 | 49.1 | 261 | < 1 | – | – | – | – | – |
| Cc1cc(C#N)cc(C)c1Oc1ccnc(NC2CCN(CC(=O)N3CCOCC3)CC2)n1 | – | – | – | – | – | – | – | 0.141 | > 143 | 143 | 1020 | < 1 | – | – | – | – | – |
| Cc1cc(C#N)cc(C)c1Oc1nc(NC2CCN(CCN3CCOCC3)CC2)nc2scnc12 | – | – | – | – | – | – | – | 0.291 | > 88.6 | 88.6 | 305 | < 1 | – | – | – | – | – |
| COc1cc2nc(NC3CCN(CCN4CCOCC4)CC3)nc(Oc3c(C)cc(C#N)cc3C)c2cc1OC | – | – | – | – | – | – | – | 1.79 | > 121 | 121 | 68 | < 1 | – | – | – | – | – |
| O=C1Nc2ccc(Cl)cc2[C@@](C#CC2CC2)(C(F)(F)F)O1 [EFAVIRENZ] | – | – | – | – | – | – | – | – | – | > 6.34 | – | – | 0.04 | 0.094 | 0.006 | – | – |
| Nc1ccn([C@@H]2CS[C@H](CO)O2)c(=O)n1 [LAMIVUDINE] | 2.77 | 0.3 | 0.7 | 1 | 0.7 | 1.3 | 0.6 | 5.02 | 8.35 | > 87.2 | > 17 | > 10 | 1.62 | 3.75 | 4.79 | 3.36 | 6.64 |
| Cc1ccnc2c1NC(=O)c1cccnc1N2C1CC1 [NEVIRAPINE] | ≥ 5.41 | 6.3 | 31.1 | 40.7 | >=46.9 | 1.2 | >=32.9 | – | > 15 | > 15 | > 92 | – | 1.03 | 5.1 | 6.69 | ≥ 7.7 | 0.191 |
| Cc1cn([C@H]2C[C@H](N=[N+]=[N-])[C@@H](CO)O2)c(=O)[nH]c1=O [ZIDOVUDINE] | 0.009 | 0.3 | 1 | 0.9 | 0.5 | 1.4 | 0.5 | 0.019 | 0.024 | > 7.48 | > 397 | > 311 | 0.006 | – | 0.016 | 0.009 | 0.027 |
